Measurements from ChEMBL document CHEMBL1201862, “PubChem BioAssay data set” (2004).
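Assay format: 96-well plates, 48-hour exposure. At the GI50, growth is halved.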 The source made the active and inactive calls. No stated cut-off is given here; in the data, active = GI50 up to about 1.1 µM and inactive = higher.

Tests used:
Test in all cases: inhibition of tumour cell growth, NCI panel, 48 h
[1] = tested on: 786-0
[2] = tested on: A498
[3] = tested on: ACHN
[4] = tested on: COLO 205
[5] = tested on: HOP-92
[6] = tested on: M14
[7] = tested on: NCI-H23
[8] = tested on: OVCAR-4
[9] = tested on: OVCAR-8
[10] = tested on: RXF 393
[11] = tested on: SK-MEL-28
[12] = tested on: TK-10
[13] = tested on: U-251
[14] = tested on: UACC-62
[15] = tested on: UO-31
[16] = tested on: HL-60

Row | Compound | GI50 [1] | GI50 [2] | GI50 [3] | GI50 [4] | GI50 [5] | GI50 [6] | GI50 [7] | GI50 [8] | GI50 [9] | GI50 [10] | GI50 [11] | GI50 [12] | GI50 [13] | GI50 [14] | GI50 [15] | GI50 [16]
1 | CC(=O)OC1C2CCC1C1C2C2(Cl)C(Cl)=C(Cl)C1(Cl)C2(Cl)Cl (stereo not given) | 14.1 µM (inactive) | 13.9 µM (inactive) | 12.2 µM (inactive) | 15 µM (inactive) | 11.2 µM (inactive) | 12.4 µM (inactive) | 12.2 µM (inactive) | 19.7 µM (inactive) | 15.4 µM (inactive) | 15.1 µM (inactive) | 18.2 µM (inactive) | 15.3 µM (inactive) | 13.3 µM (inactive) | 12.4 µM (inactive) | 12.5 µM (inactive) | 
2 | O=C1OCCC1(Cc1ccc(Cl)cc1)Cc1ccc(Cl)cc1 | 64.6 µM (inactive) | 46 µM (inactive) | > 100 µM (inactive) | > 100 µM (inactive) | 30.3 µM (inactive) | > 100 µM (inactive) | 53.2 µM (inactive) | 36.2 µM (inactive) | 64.6 µM (inactive) |  | > 100 µM (inactive) | 46.8 µM (inactive) | 52.1 µM (inactive) | > 100 µM (inactive) | 54.7 µM (inactive) | > 100 µM (inactive)
3 | Nc1c(C(=O)Nc2ccccc2)[n+]([O-])c2ccccc2[n+]1[O-] | 13.6 µM (inactive) | 16.9 µM (inactive) | 16.3 µM (inactive) | 15.5 µM (inactive) | 16.7 µM (inactive) | 15.6 µM (inactive) | 12.5 µM (inactive) | 17.6 µM (inactive) | 36.8 µM (inactive) |  | 17.8 µM (inactive) | 24.7 µM (inactive) | 12.9 µM (inactive) | 10.5 µM (inactive) | 21.2 µM (inactive) | 17.9 µM (inactive)
4 | COC(=O)C12C(=O)O[C@H](C)C1(O)C(C)C(=O)N2C (stereo not given in full) | > 100 µM (inactive) |  |  | > 100 µM (inactive) | < 0.01 µM (active) | > 100 µM (inactive) | > 100 µM (inactive) | > 100 µM (inactive) | > 100 µM (inactive) | > 100 µM (inactive) | > 100 µM (inactive) | > 100 µM (inactive) | > 100 µM (inactive) | > 100 µM (inactive) | > 100 µM (inactive) | 
5 | C[C@@H](NC1CCC[C@H]1O)c1ccccc1 (stereo not given in full) | > 100 µM (inactive) |  | > 100 µM (inactive) | > 100 µM (inactive) | > 100 µM (inactive) | > 100 µM (inactive) |  | > 100 µM (inactive) | > 100 µM (inactive) | > 100 µM (inactive) | > 100 µM (inactive) | > 100 µM (inactive) | > 100 µM (inactive) | > 100 µM (inactive) | > 100 µM (inactive) | > 100 µM (inactive)
6 | COCOCCC#CCO | > 100 µM (inactive) | > 100 µM (inactive) | > 100 µM (inactive) |  | > 100 µM (inactive) | > 100 µM (inactive) | 32.4 µM (inactive) |  | > 100 µM (inactive) | > 100 µM (inactive) | > 100 µM (inactive) | > 100 µM (inactive) | > 100 µM (inactive) | > 100 µM (inactive) | > 100 µM (inactive) | > 100 µM (inactive)
7 | C1CN2CCN3CCN4CCN1[PH]243 | > 100 µM (inactive) | > 100 µM (inactive) | > 100 µM (inactive) | > 100 µM (inactive) |  | > 100 µM (inactive) | > 100 µM (inactive) | > 100 µM (inactive) | > 100 µM (inactive) | > 100 µM (inactive) | > 100 µM (inactive) | > 100 µM (inactive) | > 100 µM (inactive) | > 100 µM (inactive) | > 100 µM (inactive) | > 100 µM (inactive)
8 | CCN(CC)CCCC(C)Nc1ccnc2ccc3nn(C)nc3c12 (stereo not given) | 37.3 µM (inactive) | 37 µM (inactive) | 65.3 µM (inactive) | 28.6 µM (inactive) |  | 23.7 µM (inactive) | > 100 µM (inactive) |  | 41.4 µM (inactive) |  |  | > 100 µM (inactive) | 65.6 µM (inactive) | > 100 µM (inactive) | 40 µM (inactive) | 30.1 µM (inactive)
9 | Cc1nc2ccccc2c(=O)n1/N=C(\N=N\c1ccc(Cl)cc1)c1ccc(N(C)C)cc1 | > 100 µM (inactive) | > 100 µM (inactive) | > 100 µM (inactive) | > 100 µM (inactive) |  |  | 72.4 µM (inactive) |  | > 100 µM (inactive) | 80.4 µM (inactive) | 26.2 µM (inactive) | > 100 µM (inactive) | > 10 µM (inactive) | 70.3 µM (inactive) | 21.8 µM (inactive) | 
10 | CN(C)CCCNC(=O)c1cccc2nc3ccccc3nc12 | 51.1 µM (inactive) | 16 µM (inactive) | 7.43 µM (inactive) | 6.95 µM (inactive) | 50.4 µM (inactive) | 22 µM (inactive) | 14.8 µM (inactive) | 14.1 µM (inactive) | 12.6 µM (inactive) | 15.6 µM (inactive) | 19.2 µM (inactive) | 27.7 µM (inactive) | 19.1 µM (inactive) | 24.1 µM (inactive) | 24.5 µM (inactive) | 
